Assay results as given in publication PMC7915732, “Screening of Yeast Display Libraries of Enzymatically Treated Peptides to Discover Macrocyclic Peptide Ligands” (International Journal of Molecular Sciences, 2021).

Tests used:
TEV protease [1] = assay: TEV protease cleavage, intracellular transglutaminase co-expression, flow cytometry; settings: 48 h induction
Source text: Screening of Yeast Display Libraries of Enzymatically Treated
Peptides to Discover Macrocyclic Peptide Ligands
John Bowen, John Schneible, Kaitlyn Bacon, Collin Labar, Stefano Menegatti and Balaji M. Rao […]
Plasmid construction for intracellular […]
peptide precursors on the surface […]
expression of the transglutaminase en-zyme downstream of the Gal10 promoter. […]
and inserted between the AgeI and KpnI sites of […]
under the direction of the Gal1 promoter and transglutaminase under the direction of the Gal10 promoter. […]
a 6 base pair oligonucleotide encoding the Kex2 recognition site between the pro and active transglutaminase sequence
50 ng of purified PCR product was treated with 1 […]
perature followed by incubation
DNA was then treated for 5 min at room
(New England Biolabs) prior to transformation into electrocompe- […]
introduce a point mutation […]
with an alanine (A) residue
, followed by the treatments with […]
prior to kinase, ligase, and DpnI treatment
Evaluation of intracellular transglutaminase […]
induction, a subset of the cells was treated with TEV protease as described in Section 2.3 to evaluate the extent of putative peptide cyclization. […] Induced cells that were not exposed to TEV protease were also analyzed for comparison. […]
S.1.5. […] The enrich-ment of peptide binders targeting N-terminal YAP between the screening rounds was evaluated via flow cytometry. […]

TEV protease [2] = assay: Cleavage of yeast-displayed peptide by TEV protease, flow cytometry; settings: TEV 3 μM overnight, 37 °C, PBSCl pH 8, three independent replicates
Source text: We further evaluated the alleged cyclization yield by assessing the extent of cleavage of transglutaminase-treated vs. untreated peptide constructs from yeast cells by TEV protease. The latter recognizes the sequence ENLYFQ-G/S and cleaves between the Q and G/S residues. We hypothesize that peptide modifications—such as cyclization –inhibit TEV protease from interacting with its recognition sequence included between the construct’s His tag and HA tag. Accordingly, yeast cells expressing the linear peptide precursor—that were either treated with transglutaminase or left untreated—were incubated with TEV protease, and the binding of antibodies targeting the HA and c-myc tags was quantified via flow cytometry. […]
Yeast cells displaying linear peptide precursors (model sequence […] or 8-mer library sequences) fused to specific epitope tags (HA and c-myc tags for model sequence […]; HA and His tags for library cells) were induced. […] The non-fluorescently conjugated primary antibodies were detected by labeling with a 1:250 dilution of goat-anti-chicken antibody (Immunoreagents, Raleigh, NC, USA) or donkey-anti-rabbit (Immunoreagents, Raleigh, NC, USA) labeled with Alexa Fluor 488 (green), respectively. […] At least 50,000 cells from each sample were analyzed using a MACSQuant VYB Cytometer (Miltenyi Biotec, Bergisch Gladbach, Germany)). […]

transglutaminase = assay: Flow cytometry detection of c-myc tag after extracellular transglutaminase treatment; settings: 1 μM transglutaminase overnight, 37 °C, PBS pH 6, three independent replicates
Source text: In this study, we adopted the sequence […] as a model linear precursor to evaluate the efficiency of transglutaminase-mediated cyclization on the surface of yeast cells; this peptide, in fact, served as model substrate in prior work on transglutaminase-mediated cyclization. Specifically, we designed a plasmid construct to express the lead sequence […] as an Aga2p fusion on the surface of Saccharomyces cerevisiae cells. Together with the model peptide, the Aga2p fusion construct contains c-myc and HA epitope tags as well as a tobacco etch virus (TEV) protease signal recognition sequence (Figure 1B). […]
Yeast cells displaying linear peptide precursors (model sequence […] or 8-mer library sequences) fused to specific epitope tags (HA and c-myc tags for model sequence […]; HA and His tags for library cells) were induced. […] The non-fluorescently conjugated primary antibodies were detected by labeling with a 1:250 dilution of goat-anti-chicken antibody (Immunoreagents, Raleigh, NC, USA) or donkey-anti-rabbit (Immunoreagents, Raleigh, NC, USA) labeled with Alexa Fluor 488 (green), respectively. […] At least 50,000 cells from each sample were analyzed using a MACSQuant VYB Cytometer (Miltenyi Biotec, Bergisch Gladbach, Germany)).

N-terminal YAP (N-YAP) = biological target: T1, N-terminal YAP (N-YAP) (Homo sapiens, UniProt P46937); assay: Yeast surface titration (yeast-displayed peptide, soluble biotinylated N-terminal YAP); format: binding; settings: linear peptide, no transglutaminase
T1 construct: which affords the expression of N-terminal YAP (AAs 1–291); made in house; host or cells: Rosetta E. coli
T1 sequence (P46937 1-291): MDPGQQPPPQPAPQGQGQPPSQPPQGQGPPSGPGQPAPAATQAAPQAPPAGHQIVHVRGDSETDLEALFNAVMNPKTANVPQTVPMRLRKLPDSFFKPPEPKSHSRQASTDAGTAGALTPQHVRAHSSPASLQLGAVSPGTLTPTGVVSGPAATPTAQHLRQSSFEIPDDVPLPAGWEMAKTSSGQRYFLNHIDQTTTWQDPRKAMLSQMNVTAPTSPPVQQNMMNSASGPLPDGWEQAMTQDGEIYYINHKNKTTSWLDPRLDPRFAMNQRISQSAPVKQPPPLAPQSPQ
Protocol: (§1) The binding affinity of cyclo[E-[…]-K] for N-terminal YAP and WW-YAP was characterized using a yeast surface titration method developed in prior work. Specifically, yeast cells displaying (putative) cyclo[E-[…]-K] were incubated with soluble, biotinylated N-terminal YAP or WW-YAP to generate binding isotherms; the fraction of cell surface fusions bound by the biotinylated target protein was quantified via immunofluorescent detection of SA-PE (Figure 4). The resulting data were fit to a monovalent binding isotherm to estimate the binding affinity (KD) of the peptide (Table 1). […]
(§2) Figure 4 Surface titrations of (A) yeast cells displaying (putative) cyclo[E-[…]-K] with the WW domain of YAP (WW-YAP, black circles) and bovine serum albumin (BSA, green diamonds); (B) yeast cells displaying the linear peptide sequence […] with WW-YAP; (C) yeast cells displaying (putative) cyclo[E-[…]-K] with N-terminal-YAP (N-YAP, black circles) and BSA (green diamonds); and (D) yeast cells displaying the linear peptide sequence […] with N-YAP. The binding of each biotinylated protein was detected using SA-PE followed by flow cytometry analysis. […]
(§3) Yeast cells encoding the linear precursor […] were induced. […] The cells were then analyzed by flow cytometry as described in [21, 50]. A SA-PE only labeling was also carried out to quantify the mean background fluorescence. […]

[3] = biological target: T2, WW domains of YAP (WW-YAP) (Homo sapiens, UniProt P46937); assay: Yeast surface titration (yeast-displayed peptide, soluble biotinylated WW-YAP); format: binding; set-up: key to KD (apparent) WW-YAP: N/D: not detectable; L/B: low binding; settings: for binding to WW-YAP (in words): linear peptide, no transglutaminase
T2 construct: which affords the expression of the WW domains of YAP (AAs 165–271); made in house; host or cells: Rosetta E. coli
T2 sequence (P46937 165-271): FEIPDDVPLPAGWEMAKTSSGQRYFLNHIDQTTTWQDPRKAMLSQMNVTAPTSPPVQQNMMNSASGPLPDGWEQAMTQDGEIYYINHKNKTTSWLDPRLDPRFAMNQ
Protocol: The binding affinity of cyclo[E-[…]-K] for N-terminal YAP and WW-YAP was characterized using a yeast surface titration method developed in prior work. Specifically, yeast cells displaying (putative) cyclo[E-[…]-K] were incubated with soluble, biotinylated N-terminal YAP or WW-YAP to generate binding isotherms; the fraction of cell surface fusions bound by the biotinylated target protein was quantified via immunofluorescent detection of SA-PE (Figure 4). The resulting data were fit to a monovalent binding isotherm to estimate the binding affinity (KD) of the peptide (Table 1). Binding isotherms were also generated using BSA (Figure 4A,C), to characterize the binding selectivity, as well as for cells displaying the linear precursor ([…]), to evaluate the effect of cyclization on the binding activity of the identified peptide sequence (Figure 4B,D).
as §2
Yeast cells encoding the linear precursor […] were induced. […] The cells were then analyzed by flow cytometry as described in [21, 50]. A SA-PE only labeling was also carried out to quantify the mean background fluorescence. […] The values of KD were estimated using Equation (1):(1) F=Fmax[L]o/KD+[L]o where F is the background subtracted mean fluorescence intensity, [L]o is the concentration of soluble target protein used for labeling, and Fmax is the background subtracted fluorescence intensity when surface-saturation is obtained. Fmax was set as the highest value of fluorescence observed in each data set. […]

[4] = biological target: bovine serum albumin (BSA) (Bos taurus, UniProt P02769); assay: Yeast surface titration with biotinylated BSA (selectivity control); format: binding; settings: Figure S7A, intracellular transglutaminase route
Sequence of bovine serum albumin (BSA) (P02769 25-607): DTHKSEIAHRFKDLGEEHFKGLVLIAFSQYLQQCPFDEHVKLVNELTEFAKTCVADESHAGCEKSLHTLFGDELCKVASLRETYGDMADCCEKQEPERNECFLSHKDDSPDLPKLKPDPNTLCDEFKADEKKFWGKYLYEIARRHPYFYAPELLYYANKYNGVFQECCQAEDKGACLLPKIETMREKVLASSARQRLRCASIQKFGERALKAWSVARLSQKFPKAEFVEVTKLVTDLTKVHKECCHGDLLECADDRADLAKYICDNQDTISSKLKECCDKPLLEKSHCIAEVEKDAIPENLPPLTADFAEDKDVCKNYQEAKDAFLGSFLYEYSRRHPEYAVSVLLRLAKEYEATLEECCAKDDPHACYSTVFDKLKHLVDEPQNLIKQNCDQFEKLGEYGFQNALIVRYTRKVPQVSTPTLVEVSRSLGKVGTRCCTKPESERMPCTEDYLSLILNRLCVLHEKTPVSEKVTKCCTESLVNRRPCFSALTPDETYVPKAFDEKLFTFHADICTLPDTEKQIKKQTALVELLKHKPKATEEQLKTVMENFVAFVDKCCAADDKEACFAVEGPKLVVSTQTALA
Protocol: as §1, §2, §3

**Q.** “ALASGSRGGG [active TG, Q-to-A lead/c-myc]” was tested. Which “c-myc detection after TEV protease (intracellular constructs)” value (TEV protease [1]) did it give?
**A.** The value was “significantly lower binding”.

**Q.** ALQSGSRGGG-EQKLISEEDL [model peptide] was tested. Which “c-myc level after TEV protease, transglutaminase-treated” value (TEV protease [2]; transglutaminase-treated) did it give?
**A.** Its value is “only a slight decrease”.

**Q.** What about the “c-myc level after TEV protease, no transglutaminase” value (TEV protease [2]; untreated with transglutaminase) of the same substance?
**A.** Its value is “significant decrease in fluorescence”.

**Q.** What about the “c-myc signal change on transglutaminase treatment” value (transglutaminase) of the same substance?
**A.** Its value is “a notable decrease in the c-myc signal”.

**Q.** Which “binding to N-terminal YAP (in words)” value (N-terminal YAP (N-YAP)) does the source give for QLYLAYPAHK here?
**A.** Its value is “shown to bind to N-terminal YAP”.

**Q.** And the “binding to WW-YAP (in words)” value ([3]; listed as linear form of the peptide)?
**A.** The value was “not WW-YAP”.

**Q.** What about the “binding to WW-YAP (in words)” value ([3]; listed as linear precursors) of the same substance?
**A.** The value was “much lower binding affinity”.

**Q.** What about the “KD (apparent) WW-YAP” value ([3]; monovalent binding isotherm, 1 h at 4 °C, 0.1% PBSA, SA-PE flow cytometry, average of three independent replicates ± one standard error) of the same substance?
**A.** The value was “L/B”.

**Q.** Which “binding specificity N-terminal YAP vs. BSA (in words)” value [4] does the source give for “cyclo[E-VQCRGKGEQ-K] (sidechain bridge or staple) [putative cyclic peptide from intracellular transglutaminase library]” here?
**A.** The value was “selective binder for N-terminal YAP”.
